Measurements: US8524750B2, “(Pyrazol-3-yl)-1,3,4-thiadiazol-2-amine and (pyrazol-3-yl)-1,3,4-thiazol-2-amine compounds” (Glaxo Group Limited, priority 2009, dated 2013)
In brackets after ≈: the same amount, converted by molar mass. Like-named read-outs stand apart in the source and are kept apart here.

Tests used:
[1] = test system: Mycobacterium tuberculosis H37Rv; assay: Mycobacterium tuberculosis H37Rv Inhibition Assay (Whole Cell Assay); format: cell-based; settings: ATCC 25618 / H37Rv, H37Rv strain (ATCC25618), Middlebrook 7H9, six days at 37° C., resazurin fluorescence after 48 hours
[2] = molecular target: T1, Mycobacterium tuberculosis InhA (Mycobacterium tuberculosis, UniProt P9WGR1); assay: Mycobacterium tuberculosis InhA Inhibition Assay (Enzyme Assay); format: biochemical; settings: 5 nM InhA, 50 μM DDCoA, 50 μM NADH, PIPES buffer pH 6.8, initial velocities of NADH consumption
T1 construct: made in house; host or cells: E. coli
T1 sequence (P9WGR1 whole entry, looked up): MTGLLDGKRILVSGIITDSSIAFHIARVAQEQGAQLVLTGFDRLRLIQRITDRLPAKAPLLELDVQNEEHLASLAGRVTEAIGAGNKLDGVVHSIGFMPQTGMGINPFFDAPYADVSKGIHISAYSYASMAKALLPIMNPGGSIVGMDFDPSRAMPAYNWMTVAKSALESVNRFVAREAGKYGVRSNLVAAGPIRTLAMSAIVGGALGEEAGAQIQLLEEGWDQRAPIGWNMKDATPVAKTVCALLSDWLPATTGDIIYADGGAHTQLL
How it was run: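 Recombinant Mtb InhA (E. coli-expressed), 5 nM, with 50 μM dodecenoyl-CoA and 50 μM NADH in 30 mM PIPES pH 6.8, 0.05% BSA; reaction started with enzyme. NADH fluorescence (ex 340/em 480 nm) followed 20 min at room temperature; IC50 from initial velocities of NADH consumption.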

Structure (SMILES) | MIC [1] | IC50 ([2]; read-out: IC50 value) | IC50 ([2]; IC50 value)
Cc1cc(C)n(Cc2nnc(Nc3ccn(Cc4c(F)cccc4Cl)n3)s2)n1 [Example 51, N-{1-[(2-chloro-6-fluorophenyl)methyl]-1H-pyrazol-3-yl}-5-[(3,5-dimethyl-1H-pyrazol-1-yl)methyl]-1,3,4-thiadiazol-2-amine] | > 10 µM | < 120 nM | 
Cc1cc(C)n(C(C)c2nnc(Nc3ccn(Cc4cc(C(F)(F)F)ccc4Cl)n3)s2)n1 (stereo not shown) [Example 11, N-(1-{[2-chloro-5-(trifluoromethyl)phenyl]methyl}-1H-pyrazol-3-yl)-5-[1-(3,5-dimethyl-1H-pyrazol-1-yl)ethyl]-1,3,4-thiadiazol-2-amine] | > 10 µM | < 104 nM | 
Cc1ccn([C@@H](C)c2nnc(Nc3ccn(Cc4c(F)cccc4Cl)n3)s2)n1 (single isomer, unassigned) [Example 67] | 1 to 4 µM (≈ 0.418 to 1.67 µg/mL) | < 120 nM | 
Cc1cc(C(F)F)nn1Cc1nnc(Nc2ccn(Cc3ccccc3)n2)s1 [Example 45, 5-{[3-(difluoromethyl)-5-methyl-1H-pyrazol-1-yl]methyl}-N-[1-(phenylmethyl)-1H-pyrazol-3-yl]-1,3,4-thiadiazol-2-amine] | > 10 µM |  | 125 to 249 nM
CC(=O)Nc1ccc(F)c(Cn2ccc(Nc3nnc(C(C)n4nc(C)cc4C)s3)n2)c1F (stereo not shown) [Intermediate 122, N-(3-{[3-({5-[1-(3,5-dimethyl-1H-pyrazol-1-yl)ethyl]-1,3,4-thiadiazol-2-yl}amino)-1H-pyrazol-1-yl]methyl}-2,4-difluorophenyl)acetamide] | > 10 µM |  | 106 to 212 nM
Cc1csc(C(C)(O)c2nnc(Nc3ccn(Cc4c(F)ccc(C)c4F)n3)s2)n1 (stereo not shown) [Example 84, 1-[5-({1-[(2,6-difluoro-3-methylphenyl)methyl]-1H-pyrazol-3-yl}amino)-1,3,4-thiadiazol-2-yl]-1-(4-methyl-1,3-thiazol-2-yl)ethanol] | ≤ 1 µM |  | < 111 nM
Cc1cc([N+](=O)[O-])nn1Cc1nnc(Nc2ccn(Cc3c(F)cccc3Cl)n2)s1 [Example 50, N-{1-[(2-chloro-6-fluorophenyl)methyl]-1H-pyrazol-3-yl}-5-[(5-methyl-3-nitro-1H-pyrazol-1-yl)methyl]-1,3,4-thiadiazol-2-amine] | > 10 µM | < 111 nM | 
Cc1csc(C(C)c2nnc(Nc3ccn(Cc4cccc(F)c4F)n3)s2)n1 (stereo not shown) [Example 16, N-{1-[(2,3-difluorophenyl)methyl]-1H-pyrazol-3-yl}-5-[1-(4-methyl-1,3-thiazol-2-yl)ethyl]-1,3,4-thiadiazol-2-amine] | 1 to 4 µM (≈ 0.418 to 1.67 µg/mL) | < 119 nM | 
Cc1cc(C)n(C(C)c2nnc(Nc3ccn(Cc4c(Cl)ccc(C)c4F)n3)s2)n1 (stereo not shown) [Example 22, N-{1-[(6-chloro-2-fluoro-3-methylphenyl)methyl]-1H-pyrazol-3-yl}-5-[1-(3,5-dimethyl-1H-pyrazol-1-yl)ethyl]-1,3,4-thiadiazol-2-amine] | 1 to 4 µM (≈ 0.446 to 1.78 µg/mL) | < 112 nM | 
Cc1cc(C)n(C(C)c2nnc(Nc3ccn(Cc4cc(N)ccc4Cl)n3)s2)n1 (stereo not shown) [Example 26, N-{1-[(5-amino-2-chlorophenyl)methyl]-1H-pyrazol-3-yl}-5-[1-(3,5-dimethyl-1H-pyrazol-1-yl)ethyl]-1,3,4-thiadiazol-2-amine] | > 10 µM | < 117 nM | 
Cc1csc([C@](C)(O)c2nnc(Nc3ccn(Cc4c(F)cccc4Cl)n3)s2)n1 (single isomer, unassigned) [Example 70] | ≤ 1 µM | < 111 nM | 
Cc1ccn(Cc2nnc(Nc3ccn(Cc4c(Cl)cccc4Cl)n3)s2)n1 [Example 57, N-{1-[(2,6-dichlorophenyl)methyl]-1H-pyrazol-3-yl}-5-[(3-methyl-1H-pyrazol-1-yl)methyl]-1,3,4-thiadiazol-2-amine] | > 10 µM | < 119 nM | 
Cc1ccn(C(C)c2nnc(Nc3ccn(Cc4ccccc4)n3)s2)n1 (stereo not shown) [Example 44, 5-[1-(3-methyl-1H-pyrazol-1-yl)ethyl]-N-[1-(phenylmethyl)-1H-pyrazol-3-yl]-1,3,4-thiadiazol-2-amine] | 1 to 4 µM (≈ 0.365 to 1.46 µg/mL) |  | 137 to 274 nM
Cc1ccn(C(C)c2nnc(Nc3ccn(Cc4c(F)cccc4F)n3)s2)n1 (stereo not shown) [Example 76, N-{1-[(2,6-difluorophenyl)methyl]-1H-pyrazol-3-yl}-5-[1-(3-methyl-1H-pyrazol-1-yl)ethyl]-1,3,4-thiadiazol-2-amine] | ≤ 1 µM |  | < 125 nM
Cc1csc([C@@](C)(O)c2nnc(Nc3ccn(Cc4c(F)cccc4Cl)n3)s2)n1 (single isomer, unassigned) [Example 71] | 1 to 4 µM (≈ 0.451 to 1.8 µg/mL) | < 111 nM | 
CCOc1c(F)ccc(F)c1Cn1ccc(Nc2nnc(C(C)n3nc(C)cc3C)s2)n1 (stereo not shown) [Example 82, 5-[1-(3,5-dimethyl-1H-pyrazol-1-yl)ethyl]-N-(1-{[2-(ethyloxy)-3,6-difluorophenyl]methyl}-1H-pyrazol-3-yl)-1,3,4-thiadiazol-2-amine] | 4 to 10 µM (≈ 1.84 to 4.6 µg/mL) |  | < 109 nM
COC(c1nc(C)cs1)c1nnc(Nc2ccn(Cc3c(F)cccc3F)n2)s1 (stereo not shown) [Example 73, N-{1-[(2,6-difluorophenyl)methyl]-1H-pyrazol-3-yl}-5-[(methyloxy)(4-methyl-1,3-thiazol-2-yl)methyl]-1,3,4-thiadiazol-2-amine] | > 10 µM |  | 115 to 230 nM
Cc1csc(C(C)c2nnc(Nc3ccn(Cc4cccc(C)c4F)n3)s2)n1 (stereo not shown) [Example 25, N-{1-[(2-fluoro-3-methylphenyl)methyl]-1H-pyrazol-3-yl}-5-[1-(4-methyl-1,3-thiazol-2-yl)ethyl]-1,3,4-thiadiazol-2-amine] | 1 to 4 µM (≈ 0.415 to 1.66 µg/mL) | < 121 nM | 
Cc1ccn(Cc2nnc(Nc3ccn(Cc4c(F)cccc4Cl)n3)s2)n1 [Example 39, N-{1-[(2-chloro-6-fluorophenyl)methyl]-1H-pyrazol-3-yl}-5-[(3-methyl-1H-pyrazol-1-yl)methyl]-1,3,4-thiadiazol-2-amine] | 1 to 4 µM (≈ 0.404 to 1.62 µg/mL) | < 124 nM | 
Cc1cc(C(F)F)nn1Cc1nnc(Nc2ccn(Cc3c(F)cccc3Cl)n2)s1 [Example 55, N-{1-[(2-chloro-6-fluorophenyl)methyl]-1H-pyrazol-3-yl}-5-([3-(difluoromethyl)-5-methyl-I H-pyrazol-1-yl]methyl}-1,3,4-thiadiazol-2-amine] | > 10 µM | < 110 nM | 
Cc1cc(C)n(C(C)c2nnc(Nc3ccn(Cc4c(F)ccc(C)c4F)n3)s2)n1 (stereo not shown) [Example 81, N-{1-[(2,6-difluoro-3-methylphenyl)methyl]-1H-pyrazol-3-yl}-5-[1-(3,5-dimethyl-1H-pyrazol-1-yl)ethyl]-1,3,4-thiadiazol-2-amine] | ≤ 1 µM |  | < 116 nM
Cc1ccn(C(C)c2nnc(Nc3ccn(Cc4cccc(F)c4F)n3)s2)n1 (stereo not shown) [Example 15, N-{1-[(2,3-difluorophenyl)methyl]-1H-pyrazol-3-yl}-5-[1-(3-methyl-1H-pyrazol-1-yl)ethyl]-1,3,4-thiadiazol-2-amine] | 1 to 4 µM (≈ 0.401 to 1.61 µg/mL) | < 125 nM | 
Cc1ccn(Cc2nnc(Nc3ccn(Cc4ccccc4)n3)s2)n1 [Example 60, 5-[(3-methyl-1H-pyrazol-1-yl)methyl]-N-[1-(phenylmethyl)-1H-pyrazol-3-yl]-1,3,4-thiadiazol-2-amine] | > 10 µM | 285 to 1420 nM | 
